# Data published in ChEMBL document CHEMBL3868587, “Heptaketides from an Endolichenic Fungus Biatriospora sp. and Their Antifungal Activity” (2016).
# Active and inactive are the calls of the source. The rule behind the calls is not given here.
# Key:
# Candida albicans [1] = experiment: Inhibition of Candida albicans clinical isolate 24D CDR1/CDR2 assessed as inhibtion of glucose-induced rhodamine-123 efflux at 1 ug/ml measured after 30 mins by confocal microscopic analysis
# [2] = Antifungal activity against fluconazole-resistant Candida albicans clinical isolate 145 by CLSI broth microdilution method; format: functional
# Candida albicans [3] = experiment: Inhibition of Candida albicans clinical isolate 24D CDR1/CDR2 assessed as inhibtion of glucose-induced rhodamine-123 efflux at 1 ug/ml measured after 30 mins by flow cytometry
# [4] = Antifungal activity against fluconazole-resistant Candida albicans clinical isolate 142 by CLSI broth microdilution method; format: functional
# [5] = Antifungal activity against Candida albicans clinical isolate 147 after 24 hrs in presence of fluconazole by XTT based broth microdilution assay; format: functional
# [6] = Antifungal activity against fluconazole-resistant Candida albicans clinical isolate 18I by CLSI broth microdilution method; format: functional
# [7] = Reduction in CDR2 mRNA expression in fluconazole-resistant Candida albicans clinical isolate 24D at 1 ug/ml measured after 12 hrs by qPCR method relative to control; format: functional
# Candida albicans [8] = experiment: Inhibition of CDR1/CDR2 in Candida albicans clinical isolate 142 assessed as potentiation of fluconazole-induced antifungal activity up to 8 ug/ml after 24 hrs by broth microdilution checkerboard assay
# Candida albicans [9] = experiment: Antifungal activity against Candida albicans clinical isolate 144 after 24 hrs in presence of fluconazole by XTT based broth microdilution assay; format: functional; details: isolate 144, 24 h
# Candida albicans [10] = experiment: Antifungal activity against Candida albicans clinical isolate 142 after 24 hrs in presence of fluconazole by XTT based broth microdilution assay; format: functional; details: isolate 142, 24 h
# [11] = Antifungal activity against fluconazole-resistant Candida albicans clinical isolate 147 by CLSI broth microdilution method; format: functional
# [12] = Upregulation of CDR1 mRNA expression in fluconazole-resistant Candida albicans clinical isolate 24D at 2 ug/ml measured after 12 hrs by qPCR method relative to control; format: functional
# Candida albicans [13] = experiment: Antifungal activity against Candida albicans clinical isolate 145 after 24 hrs in presence of fluconazole by XTT based broth microdilution assay; format: functional; details: isolate 145, 24 h
# Candida albicans [14] = experiment: Inhibition of CDR1/CDR2 in Candida albicans clinical isolate 144 assessed as potentiation of fluconazole-induced antifungal activity up to 8 ug/ml after 24 hrs by broth microdilution checkerboard assay
# [15] = Antifungal activity against Candida albicans clinical isolate 24D after 24 hrs in presence of fluconazole by XTT based broth microdilution assay; format: functional
# [16] = Upregulation of CDR2 mRNA expression in fluconazole-resistant Candida albicans clinical isolate 24D at 2 ug/ml measured after 12 hrs by qPCR method relative to control; format: functional
# [17] = Antifungal activity against fluconazole-resistant Candida albicans clinical isolate 144 by CLSI broth microdilution method; format: functional
# Candida albicans [18] = experiment: Inhibition of CDR1/CDR2 in Candida albicans clinical isolate 142 assessed as potentiation of fluconazole-induced antifungal activity measured as reduction in fluconazole MIC80 up to 8 ug/ml after 24 hrs by XTT based broth microdilution assay relative to fluconazole
# [19] = Antifungal activity against Candida albicans clinical isolate 18I after 24 hrs in presence of fluconazole by XTT based broth microdilution assay; format: functional
# Candida albicans [20] = experiment: Inhibition of CDR1/CDR2 in Candida albicans clinical isolate 24D assessed as potentiation of fluconazole-induced antifungal activity up to 8 ug/ml after 24 hrs by broth microdilution checkerboard assay
# Candida albicans [21] = experiment: Antifungal activity against Candida albicans SC5314 by CLSI broth microdilution method; format: functional
# Candida albicans [22] = experiment: Inhibition of CDR1/CDR2 in Candida albicans clinical isolate 147 assessed as potentiation of fluconazole-induced antifungal activity up to 8 ug/ml after 24 hrs by broth microdilution checkerboard assay
# Candida albicans [23] = experiment: Inhibition of CDR1/CDR2 in Candida albicans clinical isolate 18I assessed as potentiation of fluconazole-induced antifungal activity up to 8 ug/ml after 24 hrs by broth microdilution checkerboard assay
# [24] = Antifungal activity against fluconazole-resistant Candida albicans clinical isolate 24D by CLSI broth microdilution method; format: functional
# Candida albicans [25] = experiment: Inhibition of CDR1/CDR2 in Candida albicans clinical isolate 145 assessed as potentiation of fluconazole-induced antifungal activity up to 8 ug/ml after 24 hrs by broth microdilution checkerboard assay
# [26] = Reduction in CDR1 mRNA expression in fluconazole-resistant Candida albicans clinical isolate 24D at 1 ug/ml measured after 12 hrs by qPCR method relative to control; format: functional
# Candida albicans [27] = experiment: Inhibition of CDR1/CDR2 in Candida albicans clinical isolate 145 assessed as potentiation of fluconazole-induced antifungal activity by measuring fluconazole MIC80 up to 8 ug/ml after 24 hrs by XTT based broth microdilution assay (reference value: >128 ug/ml)
# Candida albicans [28] = experiment: Inhibition of CDR1/CDR2 in Candida albicans clinical isolate 18I assessed as potentiation of fluconazole-induced antifungal activity by measuring fluconazole MIC80 up to 8 ug/ml after 24 hrs by XTT based broth microdilution assay (reference value: >128 ug/ml)
# Candida albicans [29] = experiment: Inhibition of CDR1/CDR2 in Candida albicans clinical isolate 24D assessed as potentiation of fluconazole-induced antifungal activity by measuring fluconazole MIC80 up to 8 ug/ml after 24 hrs by XTT based broth microdilution assay (reference value: >128 ug/ml)
# Candida albicans [30] = experiment: Inhibition of CDR1/CDR2 in Candida albicans clinical isolate 144 assessed as potentiation of fluconazole-induced antifungal activity by measuring fluconazole MIC80 up to 8 ug/ml after 24 hrs by XTT based broth microdilution assay (reference value: >128 ug/ml)
# Candida albicans [31] = experiment: Inhibition of CDR1/CDR2 in Candida albicans clinical isolate 142 assessed as potentiation of fluconazole-induced antifungal activity by measuring fluconazole MIC80 up to 8 ug/ml after 24 hrs by XTT based broth microdilution assay (reference value: >128 ug/ml)
# Candida albicans [32] = experiment: Inhibition of CDR1/CDR2 in Candida albicans clinical isolate 147 assessed as potentiation of fluconazole-induced antifungal activity by measuring fluconazole MIC80 up to 8 ug/ml after 24 hrs by XTT based broth microdilution assay (reference value: >128 ug/ml)
compound,measurement,setting,value
COc1cc(O)c2c(c1)-c1oc(C)cc1C(=O)C2=O,inhibition,Candida albicans [1],Active
same,MIC80,[2],16 µg/mL
same,inhibition,Candida albicans [3],Active
same,MIC80,[4],16 µg/mL
same,MIC80,[5],0.125 µg/mL
same,MIC80,[6],16 µg/mL
same,fold change (FC),[7],0.5
same,fractional inhibitory concentration index (FICI),Candida albicans [8],0.01
same,MIC80,Candida albicans [9],0.125 µg/mL
same,MIC80,Candida albicans [10],0.125 µg/mL
same,MIC80,[11],16 µg/mL
same,fold change (FC),[12],2
same,MIC80,Candida albicans [13],0.125 µg/mL
same,fractional inhibitory concentration index (FICI),Candida albicans [14],0.02
same,MIC80,[15],0.25 µg/mL
same,fold change (FC),[16],3.6
same,MIC80,[17],16 µg/mL
same,fold change (FC),Candida albicans [18],> 256
same,MIC80,[19],0.25 µg/mL
same,fractional inhibitory concentration index (FICI),Candida albicans [20],0.03
same,MIC80,Candida albicans [21],16 µg/mL
same,fractional inhibitory concentration index (FICI),Candida albicans [22],0.02
same,fractional inhibitory concentration index (FICI),Candida albicans [23],0.02
same,MIC80,[24],16 µg/mL
same,fractional inhibitory concentration index (FICI),Candida albicans [25],0.04
same,fold change (FC),[26],0.4
COc1cc(O)c2c(c1)C(=O)C1=C(C2=O)[C@H](OC)O[C@@H](C)C1,MIC80,Candida albicans [21],64 µg/mL
OC(Cn1cncn1)(Cn1cncn1)c1ccc(F)cc1F [FLUCONAZOLE],MIC80,[2],> 128 µg/mL
same,MIC80,[4],> 128 µg/mL
same,MIC80,[6],> 128 µg/mL
same,MIC80,[11],> 128 µg/mL
same,MIC80,Candida albicans [27],4 µg/mL
same,MIC80,Candida albicans [28],1 µg/mL
same,MIC80,[17],> 128 µg/mL
same,MIC80,Candida albicans [29],2 µg/mL
same,MIC80,Candida albicans [30],2 µg/mL
same,MIC80,Candida albicans [21],2 µg/mL
same,MIC80,[24],> 128 µg/mL
same,MIC80,Candida albicans [31],0.5 µg/mL
same,MIC80,Candida albicans [32],2 µg/mL
COc1cc(O)c2c(c1)C(=O)C(CC(C)=O)=C(C)C2=O,MIC80,Candida albicans [21],64 µg/mL
CC1=CC2=C(CO1)C(=O)c1c(O)cc(O)cc1C2=O,MIC80,Candida albicans [21],32 µg/mL
CN(C/C=C/C#CC(C)(C)C)Cc1cccc2ccccc12 [TERBINAFINE],MIC80,Candida albicans [21],16 µg/mL
